15 compounds from PubChem BioAssay (NCI) can be followed below.

Test systems include T-47D breast; MDA-MB-435; MCF7 breast; NCI/ADR-RES ovarian.
Assay in all cases: inhibition of tumour cell growth, NCI panel, 48 h

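96-well plates; 48 h exposure; 5 concentrations. Endpoints by linear interpolation between flanking doses. Not reached: highest tested concentration assigned. Abbreviation: GI50, concentration required for 50% inhibition of growth. TGI: concentration producing complete growth inhibition.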 Some results are limits rather than exact numbers.

In the case of `NC(N)=NCCCCCNc1noc(Cc2c[nH]c3cc(Br)ccc23)n1`, the GI50 in the assay with T-47D breast was 6.04 µM; in the assay on MDA-MB-435, 19.3 µM; with MCF7 breast, 16.3 µM; with NCI/ADR-RES ovarian, 40.4 µM. Also, the TGI is 32.3 µM with T-47D breast, 62.7 µM in the assay with MDA-MB-435, 45 µM in the assay on MCF7 breast and over 100 µM in the assay on NCI/ADR-RES ovarian.
`COCCOc1cnc2ccn([C@H](C)c3nnc4c(F)cc(-c5cnn(C)c5)cn34)c(=O)c2c1`: the GI50 in the assay on T-47D breast, in the assay with MDA-MB-435, in the assay with MCF7 breast and in the assay on NCI/ADR-RES ovarian was over 100 µM throughout. Also, the TGI in the assay on T-47D breast, with MDA-MB-435, in the assay with MCF7 breast and with NCI/ADR-RES ovarian was over 100 µM throughout.
Consider `COc1cc2ncn(-c3cc(OCCc4ccccc4)c(C(N)=O)s3)c2cc1OC`, for which the GI50 in the assay on T-47D breast is over 25 µM; in the assay with MDA-MB-435, 9.55 µM; in the assay with MCF7 breast it was 10.1 µM; in the assay with NCI/ADR-RES ovarian, 14.8 µM. For the same compound, the TGI in the assay with T-47D breast, in the assay on MDA-MB-435, in the assay with MCF7 breast and with NCI/ADR-RES ovarian was over 25 µM in each case.
Consider `COc1ccc2c(O)cc3c(c2c1)[C@H](CCl)CN3C(=O)c1cc2cc(NC(=O)CCN3CCOCC3)ccc2[se]1`, for which the GI50 with T-47D breast, in the assay with MCF7 breast and with NCI/ADR-RES ovarian was under 0.001 µM throughout. In the assay on MCF7 breast, this compound came in with a TGI of 1.39 µM.
Regarding `Cc1cc(C2CC(O)C(CO)O2)cc2c(=O)[nH]c(N)nc12` (stereo not drawn), the GI50 in the assay with T-47D breast, with MDA-MB-435, with MCF7 breast and in the assay on NCI/ADR-RES ovarian was over 100 µM in each case. Also, the TGI with T-47D breast, in the assay with MDA-MB-435, with MCF7 breast and in the assay on NCI/ADR-RES ovarian was over 100 µM throughout.
Turning to `Cc1cc2c(cc1Cl)SC(=Nc1ccc(Cl)cc1)N(S(=O)(=O)c1ccccc1)S2(=O)=O`, the GI50 is 5.18 µM in the assay on MDA-MB-435, 6.05 µM in the assay with MCF7 breast and 5.25 µM in the assay on NCI/ADR-RES ovarian. The TGI came out at 19.6 µM with MDA-MB-435, 22.4 µM in the assay on MCF7 breast and 19.3 µM in the assay on NCI/ADR-RES ovarian.
For the compound `O=C(CSC(c1ccccc1)c1ccccc1)N/N=C/c1ccc(Cl)cc1Cl`, the GI50 with MDA-MB-435 is 29.6 µM; in the assay on MCF7 breast it was 7.82 µM; with NCI/ADR-RES ovarian it was 35.3 µM. Besides, the TGI with MDA-MB-435 was 79.2 µM; with MCF7 breast, 29.2 µM; with NCI/ADR-RES ovarian, over 100 µM.
As for `Cn1cc(C2=C(c3cn(CCCCCN)c4ccccc34)C(=O)NC2=O)c2ccccc21`, the GI50 with T-47D breast is 6.23 µM; in the assay with MDA-MB-435, 2.4 µM; with MCF7 breast, 5.51 µM; with NCI/ADR-RES ovarian it was 12.8 µM. For the same compound, the TGI in the assay on T-47D breast was 21.6 µM; with MDA-MB-435, over 25 µM; with MCF7 breast, over 18 µM; in the assay with NCI/ADR-RES ovarian, over 25 µM.
`CCc1ccccc1NC(=O)c1sc2nc3c(cc2c1N)C(=O)CCC3`: the GI50 was 0.533 µM with T-47D breast, 0.0598 µM with MDA-MB-435, 0.328 µM in the assay on MCF7 breast and 0.433 µM in the assay with NCI/ADR-RES ovarian. For the same compound, the TGI is over 79.8 µM with T-47D breast, 0.336 µM with MDA-MB-435, over 100 µM with MCF7 breast and 41.1 µM with NCI/ADR-RES ovarian.
`COc1ccc2ncn(-c3cc(O[C@H](C)c4ccccc4Cl)c(C(N)=O)s3)c2c1`: the GI50 in the assay on T-47D breast was 1.07 µM; in the assay on MCF7 breast, 0.00895 µM; in the assay on NCI/ADR-RES ovarian, 0.0107 µM. In addition, the TGI in the assay with T-47D breast turned out to be 8.3 µM; with MCF7 breast, 4.17 µM; in the assay on NCI/ADR-RES ovarian, 2.88 µM.
For `COc1ccc(-c2c[nH]c(=S)n2-c2ccc(OC)cc2)cc1`, the GI50 in the assay with MDA-MB-435, in the assay on MCF7 breast and with NCI/ADR-RES ovarian was over 50 µM in each case. Besides, the TGI in the assay on MDA-MB-435, with MCF7 breast and with NCI/ADR-RES ovarian was over 50 µM in each case.
Consider `N#C/C(=C/N1CCN(C(=O)c2ccco2)C1=S)C(=O)c1ccccc1`, for which the GI50 with T-47D breast was 7.16 µM; with MDA-MB-435, 11 µM; with MCF7 breast, 4.47 µM. Moreover, the figures for the TGI with T-47D breast, in the assay with MDA-MB-435 and in the assay with MCF7 breast were over 100 µM, 60.6 µM and over 100 µM, respectively.
Take `Cc1cc(S(=O)(=O)N/N=C(\Sc2cc(Cl)c(C)cc2S(N)(=O)=O)c2ccc(Cl)cc2)c(Cl)cc1Cl`: the GI50 with MDA-MB-435 was over 100 µM; in the assay with MCF7 breast, 42.8 µM; with NCI/ADR-RES ovarian, over 100 µM. The TGI in the assay on MDA-MB-435, in the assay with MCF7 breast and in the assay on NCI/ADR-RES ovarian was over 100 µM each time.
With `O=C(Nc1ccc(Br)cc1)c1ccc(Cl)c(Cl)c1`, the GI50 in the assay with T-47D breast was 2 µM; in the assay with MCF7 breast, 2.19 µM; with NCI/ADR-RES ovarian it was 3.24 µM. The values for the TGI in the assay on T-47D breast, in the assay with MCF7 breast and in the assay with NCI/ADR-RES ovarian were over 27.9 µM, over 31.4 µM and over 100 µM, respectively.
For the compound `Oc1cn(-c2ccc(Cl)cc2)nc1-c1n[nH]c(=S)n1C1CCCCC1`, in the assay on T-47D breast, the GI50 is 6.62 µM. The TGI in the assay with T-47D breast is over 100 µM; with MCF7 breast it was over 100 µM; in the assay on NCI/ADR-RES ovarian it was 1.05 µM.
